These are literature values, as cited in article PMC7797289 (Drug Design, Development and Therapy, 2021).

The structures appear in SMILES notation.

The test system of data set [1] is breast cancer metastasis. The conditions noted are these: in vivo test.
Data set [2] has as its system lung cancer. Conditions: lung cancer animal model.
Data set [3] concerns the target uPA. Conditions: read-out: Ki (inhibitory constant); uPA inhibitor.

`CCCNC(=O)[C@H]1O[C@@H]1C(=O)N[C@H](C(=O)N1CCC[C@H]1C(=O)O)[C@@H](C)CC` [CA-074]: in data set [1], the breast cancer metastasis result is given as “reduced breast cancer metastasis”. For the compound `N=C(N)c1ccc(CNC(=O)[C@H](CO)NC(=O)[C@@H](CO)NS(=O)(=O)Cc2ccccc2)cc1` [CJ-463, benzylsulfonyl-D-Ser-Ser-4- amidinobenzylamide], in data set [2], the anti-tumor efficacy result is “good anti-tumor efficacy”. The inhibition constant Ki in data set [3] is 20 nM.

Turning to `CN(C)C(=O)[C@H](Cc1ccccc1)NC(=O)[C@H]1O[C@@H]1C(=O)NCCc1ccccn1` [CLIK-148], the breast cancer metastasis entry in data set [1] is “reduced breast cancer metastasis”.
